The values below come from patent US20250026766A1, “Thiazolopyridyl Amide Derivatives as DNA Polymerase Theta Inhibitors” (BeiGene, Ltd., priority 2022, published 2025).

Chain of Pol Theta (1-894) (O75417 1-894): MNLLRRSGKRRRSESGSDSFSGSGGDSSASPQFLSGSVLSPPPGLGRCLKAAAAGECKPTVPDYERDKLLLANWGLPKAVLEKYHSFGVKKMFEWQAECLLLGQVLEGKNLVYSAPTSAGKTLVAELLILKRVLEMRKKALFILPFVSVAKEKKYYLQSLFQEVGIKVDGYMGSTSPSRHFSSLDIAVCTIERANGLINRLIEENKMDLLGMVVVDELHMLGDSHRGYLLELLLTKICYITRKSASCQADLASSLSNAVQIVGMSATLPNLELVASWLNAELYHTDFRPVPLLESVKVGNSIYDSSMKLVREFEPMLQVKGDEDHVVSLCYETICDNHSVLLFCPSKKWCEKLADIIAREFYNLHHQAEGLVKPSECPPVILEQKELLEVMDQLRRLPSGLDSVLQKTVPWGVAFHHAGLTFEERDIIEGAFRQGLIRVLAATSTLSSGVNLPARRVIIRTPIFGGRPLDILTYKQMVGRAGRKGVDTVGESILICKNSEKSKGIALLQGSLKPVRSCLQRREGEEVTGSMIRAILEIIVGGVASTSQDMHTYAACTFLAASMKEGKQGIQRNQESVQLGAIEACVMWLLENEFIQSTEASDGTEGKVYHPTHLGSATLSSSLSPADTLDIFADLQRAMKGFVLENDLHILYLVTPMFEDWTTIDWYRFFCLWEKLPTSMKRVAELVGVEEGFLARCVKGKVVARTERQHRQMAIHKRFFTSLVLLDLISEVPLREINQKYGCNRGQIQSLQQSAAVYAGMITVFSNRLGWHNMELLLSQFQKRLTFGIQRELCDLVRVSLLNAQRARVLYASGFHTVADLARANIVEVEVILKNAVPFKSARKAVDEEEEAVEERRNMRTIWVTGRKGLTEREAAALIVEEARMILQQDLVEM

This assay concerns the target Pol Theta (1-894) (Homo sapiens (Human), UniProt O75417). The assay can be described thus: Biochemical Pol Theta (1-894) ATPase IC50 assay (ADP-Glo, ssDNA substrate). As to conditions: ADP-Glo assay with ssDNA substrate, room temperature. The protocol: Baculovirus Expression of Human POL theta (1-894)
Human POL Theta (1-894)-His-pFastBac1 baculovirus samples were generated using the Bac-to-Bac baculovirus expression system (Invitrogen) according to the manufacturer's protocol. […] Baculovirus amplification was achieved using infected SF9 cells at 1:2000 virus/cells ratios, and grown for 96 hours at 27° C. post-transfection. The expression scaled up for each protein was carried out in the flask 3 L from CORNING. 4 L of 3×10^6 cells/mL Sf9 cells (Expression System, Invitrogen) grown in SF900TM II SFM insect medium (Expression System) were infected with virus stock at 1:200 virus/cell ratios, and grown for 48 hours at 27° C. post-transfection. The infected cell culture was harvested by centrifugation at 6000 rpm for 15 min 4° C. in a SORVALL LYNX6000 centrifuge. The cell pellets were stored at −80° C.
The human POL Theta (1-894)-His produced as described above, were purified from Sf9 baculovirus-infected insect cell paste. The cells were lysed using sonication method, and the lysates were clarified by centrifugation.
Enzymatic reactions of Pol Theta (1-894) were performed using ADP-Glo assay with ssDNA substrate. Pol Theta (1-894) was expressed in baculovirus expression system. The inhibition activities testing for the compound disclosed herein were carried out at room temperature in assay buffer containing 40 mM Tris pH 7.5, 20 mM MgCl2, 1 mM DTT, 0.01% BSA and 0.05% Tween-20. Compounds in DMSO were dispensed into wells of a black 384 well plate (Corning 4514) using D300e digital dispenser (Tecan). The ranges of compounds final concentration were 2.62 nM˜10000 nM. 3 μL 2× enzyme solution containing 12.5 nM enzyme was added to wells. […] After 1 hour reaction, 5 μL ADP-Glo reagent (Promga V9102) was added and incubated for 40 minutes. 10 μL Kinase Detection reagent was added and incubated for 40 minutes. Luminescence was measured on a microplate reader (PHERAstar FSX, BMG labtech). The IC50 values were calculated based on inhibition of enzyme activity in the presence of increasing concentrations of compounds.
Background: In ADP-Glo the light output rises with the ADP produced.
One may read the IC50 as the concentration at which inhibition is half-maximal. A lower IC50 goes with inhibition by little substance. On to `COc1cc(-c2ccc3nc(NC(=O)c4cnc(C)cc4-c4cc(C#N)ccc4OC)sc3n2)ccc1C#N` [Example 161, 4-(5-cyano-2-methoxyphenyl)-N-(5-(4-cyano-3-methoxyphenyl)thiazolo[5,4-b]pyridin-2-yl)-6-methylnicotinamide], for which the midpoint of inhibition, the IC50, lay at 36 nM.
Molecule `COc1ccc(C#N)cc1-c1cc(C)ncc1C(=O)Nc1nc2ccc(-c3ccc(N(CCO)S(C)(=O)=O)cc3)nc2s1` [Example 136, 4-(5-cyano-2-methoxyphenyl)-N-(5-(4-(N-(2-hydroxyethyl)methylsulfonamido)phenyl)thiazolo[5,4-b]pyridin-2-yl)-6-methylnicotinamide] gave an IC50 of 41 nM.
For the molecule `COCCOc1ccc2nc(NC(=O)c3cnc(C)cc3-c3cc(C#N)ccc3OC)sc2n1` [Example 77, 4-(5-cyano-2-methoxyphenyl)-N-(5-(2-methoxyethoxy)thiazolo[5,4-b]pyridin-2-yl)-6-methylnicotinamide], it took 50 nM to reach half-maximal inhibition (IC50).
Then `COc1ccc(C#N)cc1-c1cc(C)ncc1C(=O)Nc1nc2ccc(-c3ccc(CC#N)cc3)nc2s1` [Example 116, 4-(5-cyano-2-methoxyphenyl)-N-(5-(4-(cyanomethyl)phenyl)thiazolo[5,4-b]pyridin-2-yl)-6-methylnicotinamide], with 5.6 nM; and `COc1ccccc1-c1cnncc1C(=O)Nc1nc2ccc(-c3ccc(NC(=O)C4CC4)cc3)nc2s1` [Example 71, N-(5-(4-(cyclopropanecarboxamido)phenyl)thiazolo[5,4-b]pyridin-2-yl)-5-(2-methoxyphenyl)pyridazine-4-carboxamide], with 83 nM.
Then `Cc1cc(-c2cccc3c2OCC(=O)N3)c(C(=O)Nc2nc3ccc(-c4ccc(C#N)cc4)nc3s2)cn1` [Example 70, N-(5-(4-cyanophenyl)thiazolo[5,4-b]pyridin-2-yl)-6-methyl-4-(3-oxo-3,4-dihydro-2H-benzo[b][1,4]oxazin-8-yl)nicotinamide], with 193 nM.
Then `CCOc1ccc2nc(NC(=O)c3cnncc3-c3ccccc3OC)sc2n1` [Example 95, N-(5-ethoxythiazolo[5,4-b]pyridin-2-yl)-5-(2-methoxyphenyl)pyridazine-4-carboxamide], with 72 nM; and `COc1cccc(F)c1-c1nc(C#N)ccc1C(=O)Nc1nc2ccc(-c3ccc(Cl)cc3)nc2s1` [Example 10, N-(5-(4-chlorophenyl)thiazolo[5,4-b]pyridin-2-yl)-6-cyano-2-(2-fluoro-6-methoxyphenyl)nicotinamide], with 149 nM; and `COc1ccccc1-c1cnncc1C(=O)Nc1nc2ccc(-c3ccc(NC(C)=O)c(C)c3)nc2s1` [Example 165, N-(5-(4-acetamido-3-methylphenyl)thiazolo[5,4-b]pyridin-2-yl)-5-(2-methoxyphenyl)pyridazine-4-carboxamide], with 8.9 nM.
Turning to `Cn1nccc1-c1ccc2nc(NC(=O)c3ccc(C#N)nc3N3CCOCC3)sc2n1` [Example 15, 6-cyano-N-(5-(1-methyl-1H-pyrazol-5-yl)thiazolo[5,4-b]pyridin-2-yl)-2-morpholinonicotinamide], half-maximal inhibition (IC50) was put at 206 nM.
`COc1ccccc1-c1cnncc1C(=O)Nc1nc2ccc(-c3ccc(S(C)(=O)=O)cc3F)nc2s1` [Example 133, N-(5-(2-fluoro-4-(methylsulfonyl)phenyl)thiazolo[5,4-b]pyridin-2-yl)-5-(2-methoxyphenyl)pyridazine-4-carboxamide] yielded a 50% inhibitory concentration (IC50) of 11 nM.
With `COc1ccc(C#N)cc1-c1cc(C)ncc1C(=O)Nc1nc2ccc(-c3ccc(N4CCCC4=O)nc3)nc2s1` [Example 164, 4-(5-cyano-2-methoxyphenyl)-6-methyl-N-(5-(6-(2-oxopyrrolidin-1-yl)pyridin-3-yl)thiazolo[5,4-b]pyridin-2-yl)nicotinamide], the 50% inhibitory concentration (IC50) stood at 37 nM.
To `COc1cccc(C)c1-c1cc(C)ncc1C(=O)Nc1nc2ccc(-c3ccc(C#N)cc3)nc2s1` [Example 87, N-(5-(4-cyanophenyl)thiazolo[5,4-b]pyridin-2-yl)-4-(2-methoxy-6-methylphenyl)-6-methylnicotinamide] belongs 371 nM; to `COc1ccccc1-c1cnncc1C(=O)Nc1nc2ccc(OCC3CCCO3)nc2s1` (stereo not drawn) [Example 118, 5-(2-methoxyphenyl)-N-(5-((tetrahydrofuran-2-yl)methoxy)thiazolo[5,4-b]pyridin-2-yl)pyridazine-4-carboxamide], 17 nM.
`COc1ccccc1-c1cnncc1C(=O)Nc1nc2ccc(CCc3ccc(Cl)cn3)nc2s1` [Example 162, N-(5-(2-(5-chloropyridin-2-yl)ethyl)thiazolo[5,4-b]pyridin-2-yl)-5-(2-methoxyphenyl)pyridazine-4-carboxamide]: the midpoint of inhibition, the IC50, lay at 29 nM.
To `COc1ccccc1-c1cnncc1C(=O)Nc1nc2ccc(-c3ccc(NS(C)(=O)=O)cc3)nc2s1` [Example 48, 5-(2-methoxyphenyl)-N-(5-(4-(methylsulfonamido)phenyl)thiazolo[5,4-b]pyridin-2-yl)pyridazine-4-carboxamide] belongs 9.5 nM.
Then `COc1ccc(C#N)cc1-c1cc(CC#N)ncc1C(=O)Nc1nc2ccc(-c3ccc(C#N)cc3)nc2s1` [Example 34, 4-(5-cyano-2-methoxyphenyl)-6-(cyanomethyl)-N-(5-(4-cyanophenyl)thiazolo[5,4-b]pyridin-2-yl)nicotinamide], with 16 nM; and `COc1ccccc1-c1cnncc1C(=O)Nc1nc2ccc(Oc3ccc(C#N)cc3)nc2s1` [Example 152, N-(5-(4-cyanophenoxy)thiazolo[5,4-b]pyridin-2-yl)-5-(2-methoxyphenyl)pyridazine-4-carboxamide], with 21 nM.
To `Cc1cc(-c2cc(C#N)c(=O)n(C)c2C)c(C(=O)Nc2nc3ccc(-c4ccc(C#N)cc4)nc3s2)cn1` [Example 173, 5-cyano-N-(5-(4-cyanophenyl)thiazolo[5,4-b]pyridin-2-yl)-1,2,6′-trimethyl-6-oxo-1,6-dihydro-[3,4′-bipyridine]-3′-carboxamide] belongs 26 nM.
`COc1ccccc1-c1cnncc1C(=O)Nc1nc2ccc(C#Cc3ccc(Cl)cc3)nc2s1` [Example 63, N-(5-((4-chlorophenyl)ethynyl)thiazolo[5,4-b]pyridin-2-yl)-5-(2-methoxyphenyl)pyridazine-4-carboxamide] had a half-maximal inhibitory concentration (IC50) of 31 nM.
Then `COc1ccccc1-c1cnncc1C(=O)Nc1nc2ccc(C(C)c3ccc(Cl)cc3)nc2s1` (stereo not drawn) [Example 138, N-(5-(1-(4-chlorophenyl)ethyl)thiazolo[5,4-b]pyridin-2-yl)-5-(2-methoxyphenyl)pyridazine-4-carboxamide], with 263 nM; and `COc1ccccc1-c1cnncc1C(=O)Nc1nc2ccc(Oc3ccc(Cl)c(C)c3)nc2s1` [Example 129, N-(5-(4-chloro-3-methylphenoxy)thiazolo[5,4-b]pyridin-2-yl)-5-(2-methoxyphenyl)pyridazine-4-carboxamide], with 23 nM.
Then `COc1ccc(C#N)cc1-c1cc(C)ncc1C(=O)Nc1nc2ccc(-c3ccc(NC(C)=O)cc3)nc2s1` [Example 17, N-(5-(4-acetamidophenyl)thiazolo[5,4-b]pyridin-2-yl)-4-(5-cyano-2-methoxyphenyl)-6-methylnicotinamide], with 8.1 nM.
Then `COc1cccc(F)c1-c1cc(C)ncc1C(=O)Nc1nc2ccc(-c3ccc(C#N)cc3)nc2s1` [Example 104, N-(5-(4-cyanophenyl)thiazolo[5,4-b]pyridin-2-yl)-4-(2-fluoro-6-methoxyphenyl)-6-methylnicotinamide], with 6.5 nM.
